# Results from PubChem BioAssay AID602421 (The Scripps Research Institute Molecular Screening Center, 2012).
# “And” between values parts separate entries of the source, which are not always exact repeats. Identical values can stand only once. The source made the active and inactive calls. No rule for the calls is given here.
# Target: AddAB helicase-nuclease (Helicobacter pylori 26695)
# Assay: inhibition of H. pylori AddAB nuclease activity – biochemical, radioactivity, purified enzyme, IC50, late-stage follow-up (AID 602421)
# Settings: radioactive DNA degradation
row,SMILES,IC50
1,CCn1cc(C(=O)O)c(=O)c2cnc(N3CCN(C(=S)NC(=O)c4cccc(C)c4)CC3)nc21,inactive
2,N#Cc1c(NC(=O)c2ccco2)sc2c1CCC2,36 µM
3,N#Cc1c(NC(=O)c2ccc([N+](=O)[O-])o2)sc2c1CCCC2,> 100 µM (inactive)
4,O=C(Nc1ccc(N2CCOCC2)cc1)c1ccc([N+](=O)[O-])o1,> 100 µM (inactive)
5,COC(=O)c1c(-c2ccccc2)csc1NC(=O)c1cnccn1,11 µM
6,N#Cc1c(NC(=O)c2ccccc2C(=O)O)sc2c1CCCC2,> 100 µM (inactive)
7,CCn1cc(C(=O)O)c(=O)c2cc(F)c(N3CCN(C(=S)Nc4cccc(C(F)(F)F)c4)CC3)cc21,11 µM
8,CNC(=O)c1c(NC(=O)c2nc(SCc3ccccc3)ncc2Cl)sc2c1CCCC2,55 µM
9,N#Cc1c(NC(=O)c2ccccc2)sc2c1CCC2,> 100 µM (inactive)
10,CCn1cc(C(=O)O)c(=O)c2cnc(N3CCN(C(=S)Nc4cccc(C(F)(F)F)c4)CC3)nc21,27 µM
11,N#Cc1c(NC(=O)c2ccc(-c3ccccc3[N+](=O)[O-])o2)sc2c1CCCC2,> 100 µM (inactive)
12,CCn1cc(C(=O)O)c(=O)c2cnc(N3CCN(C(=S)NCc4ccccc4)CC3)nc21,inactive
13,Cc1ccc(C(=O)Nc2sc3c(c2C#N)CCCCC3)o1,> 100 µM (inactive)
14,NC(=O)c1ccsc1NC(=O)COC(=O)c1ccc([N+](=O)[O-])o1,> 100 µM (inactive)
15,Cc1cccnc1NC(=O)c1ccc([N+](=O)[O-])o1,> 166 µM (inactive)
16,N#Cc1c(NC(=O)c2cnccn2)sc2c1CCCC2,17 µM
17,O=C(Nc1cccc(NC(=O)c2ccccc2Cl)c1)c1ccc([N+](=O)[O-])o1,> 100 µM (inactive)
18,CCn1cc(C(=O)O)c(=O)c2cc(F)c(N3CCN(C(=S)Nc4ccccc4C(F)(F)F)CC3)cc21,79 µM
19,Cc1sc(NC(=O)c2ccc(Br)o2)c(C#N)c1C,25 µM
20,N#Cc1c(NC(=O)c2cccc(F)c2)sc2c1CCCC2,> 100 µM (inactive)
21,N#Cc1c(NC(=O)c2ccc([N+](=O)[O-])o2)sc2c1CCC2,96 µM
22,O=C(OCC(=O)c1cccs1)c1ccc([N+](=O)[O-])o1,> 100 µM (inactive)
23,CCn1cc(C(=O)O)c(=O)c2cnc(N3CCN(C(=S)Nc4ccccc4C(F)(F)F)CC3)nc21,34 µM and > 100 µM (inactive)
24,O=C(Nc1ncccn1)c1ccc([N+](=O)[O-])o1,> 100 µM (inactive)
25,O=C(NCc1cccnc1)c1ccc([N+](=O)[O-])o1,> 100 µM (inactive)
26,Cc1ccc2nc(/C(C#N)=C\c3ccc([N+](=O)[O-])o3)[nH]c2c1,> 166 µM (inactive)
27,CC1(C)Cc2c(sc(NC(=O)c3ccco3)c2C#N)CO1,> 100 µM (inactive)
28,C=CCn1c(Sc2ncc([N+](=O)[O-])s2)n[nH]c1=O,93 µM
